Patent publication US20070172957A1, “Methods of identifying anti-inflammatory macrolides” (TAISHO PHARMACEUTICAL CO., LTD., priority 2004, published 2007)

Tested on: genes predictive for the anti-inflammatory macrolide effect
Assay: Genes statistically predictive of Clari response: differentially expressed with Clari but not the inactive macrolides MAA or Josa (Appendix E)
Type: cell-based
Text: In the case of the above-mentioned (i) related to arachidonic acid biosynthesis, specifically, methods of the embodiment involve assaying whether a test macrolide alters biosynthesis of arachidonic acid, alters the expression or activities of enzymes involved in the biosynthesis or activation of arachidonic acid (e.g., arachidonic acid CoA synthetase, delta-6 desaturase, fatty acid elongase, and delta-5 desaturase, AA-related genes in Tables 2 and 3), or alters the expression of genes identified as predictive for the anti-inflammatory macrolide effect (Appendix E). Assays in which arachidonic acid or gene expression or enzymatic activity is detected can be carried out after contacting a cell with a test macrolide. Any cell line that secretes prostaglandin or produces arachidonic acid can be used. Epithelial and macrophages lines (e.g., A549 or THP-1) are suitable for this purpose; other cell lines can be identified by carrying out assays such as those described in the specific Examples, below. Alternatively, screening assays can be carried out after adding a test macrolide to an in vitro cell system (e.g., a cellular extract or liver microsome preparation) or an in vitro enzyme assay system.

Q: How did the “group mean, gene DDOST” value (SpotID 49757, MAA and Josa vs. Clari) turn out when CC[C@H]1OC(=O)[C@H](C)[C@@H](O[C@H]2C[C@@](C)(OC)[C@@H](O)[C@H](C)O2)[C@H](C)[C@@H](O[C@@H]2O[C@H](C)C[C@H](N(C)C)[C@H]2O)[C@](C)(OC)C[C@@H](C)C(=O)[C@H](C)[C@@H](O)[C@]1(C)O [clarithromycin] was run?
A: 1.08

Q: What about the “group mean, gene BCL2L2” value (SpotID 49761, MAA and Josa vs. Clari) of the same compound?
A: 1.01

Q: And the “group mean, gene AD022” value (SpotID 49767, MAA and Josa vs. Clari)?
A: 1.12

Q: And the “mean group, AD022” value (SpotID 49767, pooled group mean)?
A: 1.10

Q: And the “group mean, gene P4HB” value (SpotID 49781, MAA and Josa vs. Clari)?
A: 1.10

Q: What about the “group mean, gene CYC1” value (SpotID 49787, MAA and Josa vs. Clari) of the same compound?
A: 0.90

Q: And the “mean group, CYC1” value (SpotID 49787, pooled group mean)?
A: 0.94

Q: And the “group mean, gene BCL2L2” value (SpotID 49794, MAA and Josa vs. Clari)?
A: 1.01

Q: What about the “mean group, AD022” value (SpotID 49800, pooled group mean) of the same compound?
A: 1.09

Q: What about the “group mean, gene CDKN2C” value (SpotID 49815, MAA and Josa vs. Clari) of the same compound?
A: 0.90

Q: And the “group mean, gene CYC1” value (SpotID 49820, MAA and Josa vs. Clari)?
A: 0.90

Q: What about the “group mean, gene LAMP2” value (SpotID 49882, MAA and Josa vs. Clari) of the same compound?
A: 1.17

Q: And the “group mean, gene ATP2B4” value (SpotID 49915, MAA and Josa vs. Clari)?
A: 1.03

Q: And the “mean group, ATP2B4” value (SpotID 49915, pooled group mean)?
A: 1.06

Q: And the “group mean, gene DHCR24” value (SpotID 49922, MAA and Josa vs. Clari)?
A: 1.27

Q: What about the “group mean, gene KIAA0169” value (SpotID 49930, MAA and Josa vs. Clari) of the same compound?
A: 0.95

Q: And the “mean group, RFC1” value (SpotID 49947, pooled group mean)?
A: 0.93

Q: What about the “group mean, gene CCNE2” value (SpotID 49967, MAA and Josa vs. Clari) of the same compound?
A: 0.82

Q: And the “group mean, gene BMP6” value (SpotID 49981, MAA and Josa vs. Clari)?
A: 1.10

Q: What about the “group mean, gene VTN” value (SpotID 49989, MAA and Josa vs. Clari) of the same compound?
A: 0.90

Q: What about the “group mean, gene SRC” value (SpotID 49990, MAA and Josa vs. Clari) of the same compound?
A: 1.17

Q: What about the “group mean, gene NFYC” value (SpotID 50011, MAA and Josa vs. Clari) of the same compound?
A: 0.95

Q: What about the “mean group, HIF1A” value (SpotID 50022, pooled group mean) of the same compound?
A: 0.93

Q: And the “group mean, gene GNB2L1” value (SpotID 50049, MAA and Josa vs. Clari)?
A: 1.10

Q: What about the “mean group, NDUFA2” value (SpotID 50050, pooled group mean) of the same compound?
A: 1.02

Q: And the “group mean, gene MBTPS1” value (SpotID 50067, MAA and Josa vs. Clari)?
A: 1.07

Q: And the “group mean, gene SCOP” value (SpotID 50079, MAA and Josa vs. Clari)?
A: 1.05

Q: And the “mean group, SCOP” value (SpotID 50079, pooled group mean)?
A: 1.04

Q: And the “group mean, gene IDI1” value (SpotID 50084, MAA and Josa vs. Clari)?
A: 1.32

Q: And the “group mean, SpotID 50085 (gene symbol not given)” value (SpotID 50085, MAA and Josa vs. Clari)?
A: 1.00

Q: And the “group mean, gene CNOT3” value (SpotID 50099, MAA and Josa vs. Clari)?
A: 0.84

Q: And the “mean group, CNOT3” value (SpotID 50099, pooled group mean)?
A: 0.86

Q: What about the “group mean, gene IRF5” value (SpotID 50103, MAA and Josa vs. Clari) of the same compound?
A: 1.01

Q: What about the “group mean, gene RRBP1” value (SpotID 50135, MAA and Josa vs. Clari) of the same compound?
A: 1.11

Q: What about the “group mean, SpotID 50216 (gene symbol not given)” value (SpotID 50216, MAA and Josa vs. Clari) of the same compound?
A: 1.05

Q: What about the “group mean, gene FLJ13868” value (SpotID 50222, MAA and Josa vs. Clari) of the same compound?
A: 1.06

Q: And the “group mean, gene HK2” value (SpotID 50224, MAA and Josa vs. Clari)?
A: 1.14

Q: What about the “mean group, IL10RB” value (SpotID 50267, pooled group mean) of the same compound?
A: 1.08

Q: What about the “group mean, gene UQCR” value (SpotID 50284, MAA and Josa vs. Clari) of the same compound?
A: 1.00

Q: What about the “group mean, gene TM7SF2” value (SpotID 50294, MAA and Josa vs. Clari) of the same compound?
A: 1.29

Q: And the “group mean, gene CDR2” value (SpotID 50302, MAA and Josa vs. Clari)?
A: 1.08

Q: What about the “group mean, gene MAX” value (SpotID 50307, MAA and Josa vs. Clari) of the same compound?
A: 1.10

Q: What about the “group mean, gene BMP6” value (SpotID 50319, MAA and Josa vs. Clari) of the same compound?
A: 1.15

Q: What about the “group mean, gene DAD1” value (SpotID 50332, MAA and Josa vs. Clari) of the same compound?
A: 1.20

Q: What about the “group mean, gene FGFR2” value (SpotID 50337, MAA and Josa vs. Clari) of the same compound?
A: 1.08

Q: What about the “group mean, gene IKKE” value (SpotID 50342, MAA and Josa vs. Clari) of the same compound?
A: 1.11

Q: What about the “mean group, IKKE” value (SpotID 50342, pooled group mean) of the same compound?
A: 1.08

Q: And the “group mean, gene LOC51295” value (SpotID 50349, MAA and Josa vs. Clari)?
A: 0.78

Q: What about the “mean group, LOC51295” value (SpotID 50349, pooled group mean) of the same compound?
A: 0.84

Q: And the “mean group, CFL1” value (SpotID 50351, pooled group mean)?
A: 1.00

Q: What about the “group mean, gene TFAM” value (SpotID 50386, MAA and Josa vs. Clari) of the same compound?
A: 0.91

Q: And the “group mean, gene DGCR6L” value (SpotID 50399, MAA and Josa vs. Clari)?
A: 1.17

Q: And the “group mean, gene CHERP” value (SpotID 50405, MAA and Josa vs. Clari)?
A: 0.87

Q: What about the “group mean, gene AGPAT1” value (SpotID 50412, MAA and Josa vs. Clari) of the same compound?
A: 1.12

Q: And the “mean group, GOCAP1” value (SpotID 50421, pooled group mean)?
A: 1.10

Q: What about the “group mean, gene SIGIRR” value (SpotID 50452, MAA and Josa vs. Clari) of the same compound?
A: 1.10

Q: What about the “group mean, gene MMP15” value (SpotID 50464, MAA and Josa vs. Clari) of the same compound?
A: 1.10

Q: And the “group mean, gene CEBPA” value (SpotID 50474, MAA and Josa vs. Clari)?
A: 1.29

Q: What about the “mean group, MGP” value (SpotID 50511, pooled group mean) of the same compound?
A: 0.98

Q: And the “group mean, gene ARHC” value (SpotID 50513, MAA and Josa vs. Clari)?
A: 1.02

Q: And the “mean group, ARHC” value (SpotID 50513, pooled group mean)?
A: 1.00

Q: And the “group mean, gene PRKCBP1” value (SpotID 50532, MAA and Josa vs. Clari)?
A: 0.94

Q: What about the “group mean, gene PTPRT” value (SpotID 50550, MAA and Josa vs. Clari) of the same compound?
A: 1.08

Q: And the “mean group, BN51T” value (SpotID 50584, pooled group mean)?
A: 1.07

Q: And the “mean group, CKS2” value (SpotID 50590, pooled group mean)?
A: 0.89

Q: What about the “mean group, SpotID 50591” value (SpotID 50591 (gene symbol not given), pooled group mean) of the same compound?
A: 1.13

Q: And the “group mean, SpotID 50591 (gene symbol not given)” value (SpotID 50591, MAA and Josa vs. Clari)?
A: 1.17

Q: What about the “mean group, SRP19” value (SpotID 50601, pooled group mean) of the same compound?
A: 1.06

Q: What about the “group mean, gene PDIR” value (SpotID 50639, MAA and Josa vs. Clari) of the same compound?
A: 1.10

Q: And the “group mean, gene PROS1” value (SpotID 50643, MAA and Josa vs. Clari)?
A: 1.11

Q: What about the “mean group, BET1” value (SpotID 50645, pooled group mean) of the same compound?
A: 1.01

Q: And the “group mean, gene COPB2” value (SpotID 50654, MAA and Josa vs. Clari)?
A: 1.12

Q: What about the “group mean, gene MAX” value (SpotID 50659, MAA and Josa vs. Clari) of the same compound?
A: 1.10

Q: And the “group mean, gene GNB5” value (SpotID 50689, MAA and Josa vs. Clari)?
A: 1.19

Q: What about the “group mean, gene PRKDC” value (SpotID 50736, MAA and Josa vs. Clari) of the same compound?
A: 0.90

Q: What about the “mean group, PRKDC” value (SpotID 50736, pooled group mean) of the same compound?
A: 0.92

Q: What about the “group mean, gene AD022” value (SpotID 50738, MAA and Josa vs. Clari) of the same compound?
A: 1.14

Q: And the “mean group, AD022” value (SpotID 50738, pooled group mean)?
A: 1.10
